# Test results from patent US20110212218A1, “Method for modulating animal digestive tract microbiota and feed composition comprising bark extract” (UPM-KYMMENE CORPORATION, priority 2009, published 2011).
# Where two headings read alike, the source gives them in different places.
# System: ileal microbial metabolism
# Assay: Broiler ileal simulation in vitro, SCFA production
# Format: cell-based, broilers
SMILES,total production of short chain fatty acids (SCFA),"total production of short chain fatty acids (SCFA) (ileal simulation, 12 hours (FIG. 6))"
"C=C(C)[C@@H]1CC[C@]2(CO)CC[C@]3(C)[C@H](CC[C@@H]4[C@@]5(C)CC[C@H](O)C(C)(C)[C@@H]5CC[C@]43C)[C@@H]12 [fraction C, betulinol]",increased,–
CC[C@@H](C(=O)O)[C@@H]1O[C@@H]([C@@H](C)[C@H](O)[C@H](C)C(=O)[C@H](CC)[C@H]2O[C@]3(C=C[C@@H](O)[C@]4(CC[C@@](C)([C@H]5CC[C@](O)(CC)[C@H](C)O5)O4)O3)[C@H](C)C[C@@H]2C)[C@@H](C)C[C@@H]1C [Narasin],–,decreased
